Results taken from patent US20160045614A1, “TARGETED LIPOSOMAL COMPOSITION USING ANTI-HER-2 AFFIBODY MOLECULES AND APPLICATIONS THEREOF IN CANCER TREATMENT” (priority 2014, published 2016).

Assays:
[1] = system: TUBO tumor; assay: In vivo chemotherapy study, TUBO tumor model; parameters: species or system female BALB/c mice; conditions: 15 mg/kg; possibly acute cardiac toxicity
Description: All animal experiments were conducted in compliance with the Institutional Ethical Committee and Research Advisory Committee of Mashhad University of Medical Sciences guidelines. On day 0, female BALB/c mice, aged 4-6 weeks, were given subcutaneous injections of TUBO tumor cells (5×10^5 cells per mouse) in the right flank. On day 14, tumor bearing mice with palpable size received medication via a single tail vein injection of either dextrose 5% solution as negative control or doxorubicin at 15 mg/kg encapsulated in liposomes. Mice were weighed and tumor sizes were monitored within 60 days post-injection and the experiment was terminated for those mice that felt so unwell. Kaplain-Meier event free survival probability curve was obtained for each experimental group.

[2] = system: SKBR3, TUBO and MDA-MB231 Cells; assay: Cytotoxicity study, MTS assay; format: cell-based; conditions: 1 and 3 hours incubation, then 72 hours; FIG. 4
Description: The anti-proliferative effects of prepared liposomes containing Dox were assessed on SKBR3, TUBO and MDA-MB231 Cells using MTS assay (Promega). For this purpose, the cells were seeded at 5000 cells/well in 96 well plates. After overnight incubation, the medium was replaced with an FCS-free medium containing 1:2 serial dilutions of liposomal Dox or free Dox for scheduled incubation times (1 and 3 hours) at 37° C. The cells were washed gently in PBS and further incubated in the free drugs medium at 37° C. for 72 hours. The viability of cells was determined using a Promega MTS kit. Then, the IC50 of formulations were calculated.

For COc1cccc2c1C(=O)c1c(O)c3c(c(O)c1C2=O)C[C@@](O)(C(=O)CO)C[C@@H]3O[C@H]1C[C@H](N)[C@H](O)[C@H](C)O1.Cl [Dox, doxorubicin hydrochloride], which “survival of the group under conventional Dox treatment” value [1] is on record?
Its value is “died in early days”.

And the “cytotoxicity (IC50) on HER2+ cell lines SKBR3 and TUBO against HER2− cell line MDA-MB-231” value [2]?
Its value is “no distinguishing difference between cytotoxicity of HER2^+ and HER2^− cells”.
